Laboratory results from patent publication US8802064B2, “Inhibitors of fatty acid amide hydrolase” (Infinity Pharmaceuticals, Inc., priority 2009, dated 2014).

Molecular target: T1, human FAAH (Homo sapiens, UniProt O00519)
T1 construct: host or cells: COS-7 cells, transient transfection (FuGENE 6); 13,000 g membrane fraction solubilised in 1% Triton X-100
T1 sequence (O00519 1-579): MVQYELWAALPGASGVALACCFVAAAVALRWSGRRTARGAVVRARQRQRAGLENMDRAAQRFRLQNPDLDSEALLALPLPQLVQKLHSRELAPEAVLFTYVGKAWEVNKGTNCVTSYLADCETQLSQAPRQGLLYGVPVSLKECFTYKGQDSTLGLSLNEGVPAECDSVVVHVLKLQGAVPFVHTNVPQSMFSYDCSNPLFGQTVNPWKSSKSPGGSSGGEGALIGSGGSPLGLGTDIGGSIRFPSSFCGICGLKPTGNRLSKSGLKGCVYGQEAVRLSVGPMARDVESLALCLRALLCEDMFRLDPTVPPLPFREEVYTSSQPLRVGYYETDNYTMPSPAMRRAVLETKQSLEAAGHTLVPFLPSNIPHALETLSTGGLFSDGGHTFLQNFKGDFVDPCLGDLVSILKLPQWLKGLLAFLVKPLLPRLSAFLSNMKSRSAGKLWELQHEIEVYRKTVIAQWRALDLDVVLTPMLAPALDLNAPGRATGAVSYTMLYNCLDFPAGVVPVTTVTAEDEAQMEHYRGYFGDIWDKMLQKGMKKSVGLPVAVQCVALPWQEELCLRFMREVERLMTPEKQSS
Assay: Human FAAH inhibition assay (fluorescence, AMC arachidonoyl amide hydrolysis)
Format: biochemical
Details: human FAAH from transfected COS-7 cells; 20 μM AMC arachidonoyl amide; 30 min preincubation, 4 h reaction at room temperature
Description: Exemplary compounds are set forth in the Examples provided below. Compounds were assayed as inhibitors of human FAAH using the method described in detail in Example 16.
The following assays were used to determine the inhibition of FAAH: (1) a fluorescence-based assay (Manjunath et al., Analytical Biochemistry (2005) 343:143-151); and (2) a microsome-based fluorescent assay (Wang et al., Biomolecular Screening (2006) 1-9).
COS-7 cells were split the day before, 1:5 into 150 mm×25 mm cell culture dishes (Corning Inc., Cat. No. 430599). Transient transfection took place at 30-40% confluency according to FuGENE 6 Transfection Reagent (Roche, Cat. No. 11814 443 001).
The FuGENE transfection 6 reagent (45 uL) was added to 1410 μL of media (DMEM, serum free without pen/strep) in a 15 mL conical tube and incubated at room temp for 5 minutes, followed by the addition of FAAH plasmid DNA (15 μg) (OriGene Cat. No. TC119221, Genbank Accession No. NM_001441.1, 0.67 ug/uL) and a further incubation of 15 minutes at room temperature. The resulting solution was added into one dish of 30-40% confluent COS-7 cells in a dropwise manner. The COS-7 cell dish was subsequently incubated for 48 hours. The cells were then harvested.
Media was aspirated from the dishes and the cells rinsed with 10 mL PBS. The PBS was removed and 3 mL of PBS added to the dish. The dish was scraped to resuspend the cells, and the subsequent cell suspension collected into a 15 mL conical tube. The cells were pelleted by centrifugation at 1200 rpm for 5 minutes in a bench top centrifuge. PBS was removed and the cell pellet snap frozen in liquid nitrogen and stored at 80° C.
COS-7 Cells FAAH purification: • (1) Fractionation: Frozen cell pellets from transient transfections were thawed on ice and resuspended in 12.5 mM Hepes pH 8.0, 100 mM NaCl, 1 mM EDTA (10 mL/0.2 g cell pellet). The pellets were dounce homogenized and then sonicated to produce cell extract. The cell extract was subsequently centrifuged at 1000 g to remove cellular debris. The pellet was discarded and the supernatant centrifuged at 13,000 g for 20 minutes. The pellet contained membrane bound FAAH. The supernatant was discarded and the pellet resolubilized. • (2) Resolubilization: The fraction of interest, (13,000 g, membrane fraction) was resuspended in 2.3 mL resuspension buffer (20 mM Hepes pH 7.8, 10% v/v Glycerol, 1 mM EDTA, 1% Triton X-100) and the sample incubated on ice for 1 hour and then centrifuged to remove any particulate matter. The supernatant containing solubilized human FAAH was aliquoted and snap frozen in liquid nitrogen and stored at 80° C. until use. • (3) Characterization: Protein Concentration determined by Bradford assay. • SDS gel and Western blot to confirm presence of FAAH • FAAH activity assay • Km determination—96-well assay • Linear dependence—96-well assay • Standard compound Ki determination—384-well assay
Rat FAAH biochemical assays were carried out in a 96 well flat bottom black nontreated polystyrene plates (Corning Costar Catalogue #3915). FAAH reaction buffer: 50 mM Hepes (pH 7.5), 1 mM EDTA, 0.2% Triton X-100. FAAH substrate—AMC Arachidonoyl Amide (Cayman Chemicals Company, Catalog #10005098). The reaction was read in an Envision microtiter plate reader [Excitation filter 355 nm (40 nm bandpass); Emmision filter 460 nm (25 nm bandpass)]. The raw fluorescence was plotted on the y axis and the inhibitor concentration on the x axis to give a dose response inhibition curve. The data was fitted to a single site competitive inhibition equation, fixing the Km for the rat and human enzyme to 12 μM and 9 μM respectively.
The principle of this assay was the hydrolysis of AMC-Arichodonoyl, a fluorescent analogue of Anandamide, which results in the formation of Arachidonic acid and AMC. The formation of AMC results in an increase in fluorescence (see, for example, Manjunath et al., Analytical Biochemistry (2005) 343:143-151; and Wang et al., Biomolecular Screening (2006) 1-9). […]

Row | Ki | SMILES
1 | 10 to 100 nM | O=c1c2cc(B(O)O)ccc2ccn1CCc1ccccc1 [Compound 11]
2 | 10 to 100 nM | CC(c1ccccc1)n1ccc2cc(B(O)O)ccc2c1=O (stereo not drawn) [Compound 4]
3 | > 1000 nM | Cc1nc2cc(B(O)O)ccc2c(=O)n1C [Compound 8]
4 | 10 to 100 nM | Cc1nc2cc(B(O)O)ccc2c(=O)n1CCc1ccccc1 [Compound 9]
5 | ≤ 10 nM | O=c1c2ccc(B(O)O)cc2ncn1CCc1ccccc1 [Compound 10]
6 | ≤ 10 nM | O=C1c2ccc(B(O)O)cc2CCN1CCc1ccccc1 [Compound 12]
7 | 10 to 100 nM | CC(Cn1ccc2cc(B(O)O)ccc2c1=O)c1ccccc1 (stereo not drawn) [Compound 5]
8 | 100 to 1000 nM | O=c1[nH]c(CCc2ccccc2)nc2ccc(B(O)O)cc12 [Compound 14]
9 | ≤ 10 nM | O=c1c2ccc(B(O)O)cc2cnn1CCc1ccccc1 [Compound 13]
10 | ≤ 10 nM | O=C1c2ccc(B(O)O)cc2CN1CCc1ccccc1 [Compound 15]
11 | 10 to 100 nM | O=c1c2ccc(B(O)O)cc2ccn1Cc1ccccc1 [Compound 2]
12 | ≤ 10 nM | CCCCCCn1ccc2cc(B(O)O)ccc2c1=O [Compound 7]
13 | ≤ 10 nM | O=c1c2ccc(B(O)O)cc2ccn1CCc1ccccc1 [Compound 3]
14 | 10 to 100 nM | Cn1ccc2cc(B(O)O)ccc2c1=O [Compound 1]
15 | 10 to 100 nM | CC(Cc1ccccc1)n1ccc2cc(B(O)O)ccc2c1=O (stereo not drawn) [Compound 6]
